Source: US11958830B2, “Protease inhibitors, preparation, and uses thereof” (WESTLAKE PHARMACEUTICALS (HANGZHOU) CO., LTD., priority 2021, dated 2024)

Legend:
SARS-CoV-2 = assay: microbe, parasite or virus in culture; assay type: cell-based; conditions: Severe acute respiratory syndrome coronavirus 2, A549, read-out: IC50, anti-SARS-CoV-2 activity in A549 cells
SARS-CoV-2 3CLpro = molecular target: T1, SARS-CoV-2 3CLpro (Severe acute respiratory syndrome coronavirus 2, UniProt P0DTD1); assay: FRET-based continuous kinetic enzymatic assay of 3CLpro; assay type: biochemical; conditions: 100 nM 3CLpro, 100 μM fluorogenic substrate, 1 hour pre-incubation, 30° C.; read-out: IC50 against SARS-CoV-2 3CLpro
T1 construct: made in house; host or cells: E. coli

SMILES	IC50 (SARS-CoV-2) [nM]	IC50 (SARS-CoV-2 3CLpro) [nM]
CNC(=O)[C@@H](Cc1cccc(F)c1)NC(=O)C1CN(C(=O)c2cncc3cccc(O)c23)CCN1Cc1ccc(Cl)cc1Cl (stereo partly shown) [Compound 1]	848	165
CNC(=O)c1cc(Br)cc([N+](=O)[O-])c1N1CC[C@@]2(CN(C(=O)c3cncc4cc(O)ccc34)C[C@@H]2c2ccccc2)C1 [Compound 8]	38.8	49.5
